Test results reported in patent US20070099888A1, “Inflammation Inhibitor Comprising Zinc Salt of Acylamino Acid” (priority 2004, published 2007).

System: AP-1
Assay: Effect of the zinc salt of acylamino acid on AP-1 activation by ultraviolet light (gel shift assay)
Type: cell-based
Conditions: human dermal fibroblasts; 50 μM test compound added 18 hours before UVA 20 J/cm2; nuclear protein collected after 4 to 5 hours
Protocol: After 18 hours, the culture medium was replaced with a phenol red-free medium. By using […]-80 (manufactured by Toshiba Medical Supply Co., Ltd.), the fibroblasts were irradiated with ultraviolet light (UVA: 20 J/cm2). After 4 to 5 hours, the cells were collected, and a nuclear protein was extracted by a standard method. With regard to the obtained nuclear protein, activated AP-1 was detected by a gel shift assay. By measuring the radioactivity value of the AP-1 band using a bioimaging analyzer, BAS2000 (manufactured by Fuji Film Co., Ltd.), the amount of AP-1 was quantified. The inhibition ratio of activation of AP-1 of the test compound was calculated by the following formula. […] A1: radioactivity value of AP-1 band with addition of test compound […] A3: radioactivity value of AP-1 band without addition of test compound and without ultraviolet irradiation

SMILES	Inhibition ratio of activation of AP-1
N[C@@H](CCC(=O)[O-])C(=O)[O-].[Zn+2] [Zinc salt of L-glutamic acid]	2.4%
CCCCCCCCCCCC(=O)NCC(=O)[O-].CCCCCCCCCCCC(=O)NCC(=O)[O-].[Zn+2] [Zinc salt of N-lauroyl glycine]	59.2%
CCCCCCCCCCCC(=O)N[C@@H](CCC(=O)[O-])C(=O)[O-].[Zn+2] [Zinc salt of N-lauroyl-L-glutamic acid]	89.6%
CCCCCCCCCCCC(=O)N[C@@H](Cc1c[nH]cn1)C(=O)[O-].CCCCCCCCCCCC(=O)N[C@@H](Cc1c[nH]cn1)C(=O)[O-].[Zn+2] [Zinc salt of N-lauroyl-L-histidine]	54.8%
NCC(=O)[O-].NCC(=O)[O-].[Zn+2] [Zinc salt of glycine]	−72.8%
CCCCCCCCCCCC(=O)[O-].CCCCCCCCCCCC(=O)[O-].[Zn+2] [Zinc salt of lauric acid]	9.1%
